Legend:
[1] = target: PLK3 (human) (UniProt Q9H4B4); experiment: KINOMEscan competition binding; conditions: compound 10.0 µM
[2] = target: RPS6KA6 KD2 (human) (UniProt Q9UK32); experiment: KINOMEscan competition binding; conditions: compound 10.0 µM
[3] = target: STK33 (human) (UniProt Q9BYT3); experiment: KINOMEscan competition binding; conditions: compound 10.0 µM
[4] = target: DCLK1 (human) (UniProt O15075); experiment: KINOMEscan competition binding; conditions: compound 10.0 µM
[5] = target: RPS6KA2 KD2 (human) (UniProt Q15349); experiment: KINOMEscan competition binding; conditions: compound 10.0 µM
[6] = target: DAPK1 (human) (UniProt P53355); experiment: KINOMEscan competition binding; conditions: compound 10.0 µM
[7] = target: TTK (human) (UniProt P33981); experiment: KINOMEscan competition binding; conditions: compound 10.0 µM
[8] = target: SLK (human) (UniProt Q9H2G2); experiment: KINOMEscan competition binding; conditions: compound 10.0 µM
[9] = target: DAPK3 (human) (UniProt O43293); experiment: KINOMEscan competition binding; conditions: compound 10.0 µM
[10] = target: RPS6KA1 KD2 (human) (UniProt Q15418); experiment: KINOMEscan competition binding; conditions: compound 10.0 µM
[11] = target: INSRR (human) (UniProt P14616); experiment: KINOMEscan competition binding; conditions: compound 10.0 µM
[12] = target: DCLK2 (human) (UniProt Q8N568); experiment: KINOMEscan competition binding; conditions: compound 10.0 µM
[13] = target: INSR (human) (UniProt P06213); experiment: KINOMEscan competition binding; conditions: compound 10.0 µM
[14] = target: ALK (human) (UniProt Q9UM73); experiment: KINOMEscan competition binding; conditions: compound 10.0 µM
[15] = target: PLK4 (human) (UniProt O00444); experiment: KINOMEscan competition binding; conditions: compound 10.0 µM
[16] = target: PTK2 (human) (UniProt Q05397); experiment: KINOMEscan competition binding; conditions: compound 10.0 µM
[17] = target: DAPK2 (human) (UniProt Q9UIK4); experiment: KINOMEscan competition binding; conditions: compound 10.0 µM
[18] = target: PTK2B (human) (UniProt Q14289); experiment: KINOMEscan competition binding; conditions: compound 10.0 µM
[19] = target: PLK1 (human) (UniProt P53350); experiment: KINOMEscan competition binding; conditions: compound 10.0 µM
[20] = target: MYLK (human) (UniProt Q15746); experiment: KINOMEscan competition binding; conditions: compound 10.0 µM
[21] = target: GAK (human) (UniProt O14976); experiment: KINOMEscan competition binding; conditions: compound 10.0 µM
[22] = target: CSNK2A2 (human) (UniProt P19784); experiment: KINOMEscan competition binding; conditions: compound 10.0 µM
[23] = target: PIK3CB (human) (UniProt P42338); experiment: KINOMEscan competition binding; conditions: compound 10.0 µM
[24] = target: PIK3CD (human) (UniProt O00329); experiment: KINOMEscan competition binding; conditions: compound 10.0 µM
[25] = target: CSNK2A1 (human) (UniProt P68400); experiment: KINOMEscan competition binding; conditions: compound 10.0 µM
[26] = target: CDK16 (human) (UniProt Q00536); experiment: KINOMEscan competition binding; conditions: compound 10.0 µM
[27] = target: MAP4K4 (human) (UniProt O95819); experiment: KINOMEscan competition binding; conditions: compound 10.0 µM
[28] = target: MAP2K3 (human) (UniProt P46734); experiment: KINOMEscan competition binding; conditions: compound 10.0 µM
[29] = target: PIM2 (human) (UniProt Q9P1W9); experiment: KINOMEscan competition binding; conditions: compound 10.0 µM
[30] = target: PIK3CA (human) (UniProt P42336); experiment: KINOMEscan competition binding; conditions: compound 10.0 µM
[31] = target: PIM1 (human) (UniProt P11309); experiment: KINOMEscan competition binding; conditions: compound 10.0 µM
[32] = target: RPS6KA4 KD2 (human) (UniProt O75676); experiment: KINOMEscan competition binding; conditions: compound 10.0 µM
[33] = target: CDK7 (human) (UniProt P50613); experiment: KINOMEscan competition binding; conditions: compound 10.0 µM
[34] = target: PIK3CG (human) (UniProt P48736); experiment: KINOMEscan competition binding; conditions: compound 10.0 µM
[35] = target: STK17B (human) (UniProt O94768); experiment: KINOMEscan competition binding; conditions: compound 10.0 µM
[36] = target: MINK1 (human) (UniProt Q8N4C8); experiment: KINOMEscan competition binding; conditions: compound 10.0 µM
[37] = target: TAOK1 (human) (UniProt Q7L7X3); experiment: KINOMEscan competition binding; conditions: compound 10.0 µM
[38] = target: LATS2 (human) (UniProt Q9NRM7); experiment: KINOMEscan competition binding; conditions: compound 10.0 µM
[39] = target: PIM3 (human) (UniProt Q86V86); experiment: KINOMEscan competition binding; conditions: compound 10.0 µM
[40] = system: PIK3CA (human), P42336 [E545K]; experiment: KINOMEscan competition binding; conditions: compound 10.0 µM
[41] = target: BTK (human) (UniProt Q06187); experiment: KINOMEscan competition binding; conditions: compound 10.0 µM
[42] = target: HIPK1 (human) (UniProt Q86Z02); experiment: KINOMEscan competition binding; conditions: compound 10.0 µM
[43] = target: PIM2 (human) (UniProt Q9P1W9); experiment: SelectScreen, TR FRET
[44] = target: PIM1 (human) (UniProt P11309); experiment: SelectScreen, TR FRET

DAPK1 (human), sequence (P53355 whole entry, looked up): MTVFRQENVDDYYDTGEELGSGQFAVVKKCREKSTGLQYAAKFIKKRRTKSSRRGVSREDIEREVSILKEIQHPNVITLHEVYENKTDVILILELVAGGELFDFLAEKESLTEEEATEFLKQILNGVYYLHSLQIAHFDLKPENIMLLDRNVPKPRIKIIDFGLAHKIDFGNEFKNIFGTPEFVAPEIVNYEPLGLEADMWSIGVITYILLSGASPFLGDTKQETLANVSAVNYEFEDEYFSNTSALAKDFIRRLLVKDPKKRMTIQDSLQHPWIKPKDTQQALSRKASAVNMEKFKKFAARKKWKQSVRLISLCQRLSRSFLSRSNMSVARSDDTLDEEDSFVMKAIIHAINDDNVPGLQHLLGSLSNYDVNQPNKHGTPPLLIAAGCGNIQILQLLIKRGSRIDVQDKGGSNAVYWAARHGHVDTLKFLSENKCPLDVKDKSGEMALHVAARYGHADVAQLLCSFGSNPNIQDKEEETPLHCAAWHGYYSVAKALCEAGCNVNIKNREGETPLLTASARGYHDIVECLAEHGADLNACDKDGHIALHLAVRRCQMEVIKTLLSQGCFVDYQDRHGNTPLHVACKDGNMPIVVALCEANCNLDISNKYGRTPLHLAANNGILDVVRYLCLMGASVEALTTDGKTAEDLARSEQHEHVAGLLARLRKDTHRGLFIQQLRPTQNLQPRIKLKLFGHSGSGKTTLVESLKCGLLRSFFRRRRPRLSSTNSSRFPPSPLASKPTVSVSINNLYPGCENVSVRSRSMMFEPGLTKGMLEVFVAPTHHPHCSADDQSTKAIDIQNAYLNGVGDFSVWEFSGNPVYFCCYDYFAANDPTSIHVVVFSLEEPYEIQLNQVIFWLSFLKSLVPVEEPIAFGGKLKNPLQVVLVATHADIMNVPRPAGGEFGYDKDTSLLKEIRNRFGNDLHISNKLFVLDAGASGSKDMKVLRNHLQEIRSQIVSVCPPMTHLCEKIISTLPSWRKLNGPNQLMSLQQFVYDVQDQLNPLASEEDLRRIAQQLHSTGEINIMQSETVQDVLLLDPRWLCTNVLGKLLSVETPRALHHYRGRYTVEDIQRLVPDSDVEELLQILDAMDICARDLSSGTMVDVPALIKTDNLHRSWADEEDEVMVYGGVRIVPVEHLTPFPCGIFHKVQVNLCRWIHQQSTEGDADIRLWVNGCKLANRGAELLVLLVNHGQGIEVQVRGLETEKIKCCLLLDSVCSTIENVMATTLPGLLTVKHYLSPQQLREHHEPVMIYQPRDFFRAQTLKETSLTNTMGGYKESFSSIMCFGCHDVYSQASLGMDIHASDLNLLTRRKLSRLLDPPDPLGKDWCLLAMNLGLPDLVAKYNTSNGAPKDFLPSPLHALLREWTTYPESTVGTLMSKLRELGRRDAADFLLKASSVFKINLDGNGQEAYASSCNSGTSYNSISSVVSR
PIM2 (human), sequence (Q9P1W9 whole entry, looked up): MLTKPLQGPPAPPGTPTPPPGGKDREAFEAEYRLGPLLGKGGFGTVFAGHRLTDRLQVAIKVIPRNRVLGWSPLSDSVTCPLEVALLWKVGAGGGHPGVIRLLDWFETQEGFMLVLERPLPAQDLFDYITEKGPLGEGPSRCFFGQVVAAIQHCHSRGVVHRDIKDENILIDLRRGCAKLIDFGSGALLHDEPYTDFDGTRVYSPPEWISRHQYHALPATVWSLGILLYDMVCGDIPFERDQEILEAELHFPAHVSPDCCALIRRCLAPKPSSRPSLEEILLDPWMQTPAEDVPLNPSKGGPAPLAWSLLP
DAPK2 (human), sequence (Q9UIK4 whole entry, looked up): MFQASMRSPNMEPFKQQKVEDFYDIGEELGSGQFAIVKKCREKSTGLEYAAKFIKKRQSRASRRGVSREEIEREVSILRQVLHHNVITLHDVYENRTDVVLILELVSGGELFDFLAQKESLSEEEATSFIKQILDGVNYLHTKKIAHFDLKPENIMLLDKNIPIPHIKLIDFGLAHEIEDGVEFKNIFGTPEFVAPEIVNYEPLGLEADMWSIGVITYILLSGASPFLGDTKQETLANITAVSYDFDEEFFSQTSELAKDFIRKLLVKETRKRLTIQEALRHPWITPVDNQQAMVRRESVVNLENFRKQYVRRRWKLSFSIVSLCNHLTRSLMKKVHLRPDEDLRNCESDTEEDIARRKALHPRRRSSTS
DAPK3 (human), sequence (O43293 whole entry, looked up): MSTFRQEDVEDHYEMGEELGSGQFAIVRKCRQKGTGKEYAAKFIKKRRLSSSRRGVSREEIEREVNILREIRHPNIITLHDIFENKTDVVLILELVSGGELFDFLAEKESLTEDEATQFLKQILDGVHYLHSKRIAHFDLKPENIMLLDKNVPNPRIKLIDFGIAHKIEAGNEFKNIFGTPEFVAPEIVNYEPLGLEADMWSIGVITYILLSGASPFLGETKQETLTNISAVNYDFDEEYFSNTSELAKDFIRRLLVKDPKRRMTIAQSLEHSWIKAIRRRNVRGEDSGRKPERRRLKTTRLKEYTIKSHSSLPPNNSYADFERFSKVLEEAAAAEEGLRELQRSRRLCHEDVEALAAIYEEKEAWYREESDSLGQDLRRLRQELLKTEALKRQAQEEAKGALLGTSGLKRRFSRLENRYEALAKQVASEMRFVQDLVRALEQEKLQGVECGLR
PIM1 (human), sequence (P11309 whole entry, looked up): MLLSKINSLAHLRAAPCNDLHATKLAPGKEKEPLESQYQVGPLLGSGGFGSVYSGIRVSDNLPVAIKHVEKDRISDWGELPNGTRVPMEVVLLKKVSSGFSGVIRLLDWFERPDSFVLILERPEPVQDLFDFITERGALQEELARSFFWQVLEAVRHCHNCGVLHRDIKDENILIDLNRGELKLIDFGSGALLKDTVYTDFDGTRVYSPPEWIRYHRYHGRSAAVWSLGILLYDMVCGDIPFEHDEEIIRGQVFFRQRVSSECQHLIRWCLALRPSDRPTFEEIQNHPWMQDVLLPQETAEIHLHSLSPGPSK
PLK4 (human), sequence (O00444 whole entry, looked up): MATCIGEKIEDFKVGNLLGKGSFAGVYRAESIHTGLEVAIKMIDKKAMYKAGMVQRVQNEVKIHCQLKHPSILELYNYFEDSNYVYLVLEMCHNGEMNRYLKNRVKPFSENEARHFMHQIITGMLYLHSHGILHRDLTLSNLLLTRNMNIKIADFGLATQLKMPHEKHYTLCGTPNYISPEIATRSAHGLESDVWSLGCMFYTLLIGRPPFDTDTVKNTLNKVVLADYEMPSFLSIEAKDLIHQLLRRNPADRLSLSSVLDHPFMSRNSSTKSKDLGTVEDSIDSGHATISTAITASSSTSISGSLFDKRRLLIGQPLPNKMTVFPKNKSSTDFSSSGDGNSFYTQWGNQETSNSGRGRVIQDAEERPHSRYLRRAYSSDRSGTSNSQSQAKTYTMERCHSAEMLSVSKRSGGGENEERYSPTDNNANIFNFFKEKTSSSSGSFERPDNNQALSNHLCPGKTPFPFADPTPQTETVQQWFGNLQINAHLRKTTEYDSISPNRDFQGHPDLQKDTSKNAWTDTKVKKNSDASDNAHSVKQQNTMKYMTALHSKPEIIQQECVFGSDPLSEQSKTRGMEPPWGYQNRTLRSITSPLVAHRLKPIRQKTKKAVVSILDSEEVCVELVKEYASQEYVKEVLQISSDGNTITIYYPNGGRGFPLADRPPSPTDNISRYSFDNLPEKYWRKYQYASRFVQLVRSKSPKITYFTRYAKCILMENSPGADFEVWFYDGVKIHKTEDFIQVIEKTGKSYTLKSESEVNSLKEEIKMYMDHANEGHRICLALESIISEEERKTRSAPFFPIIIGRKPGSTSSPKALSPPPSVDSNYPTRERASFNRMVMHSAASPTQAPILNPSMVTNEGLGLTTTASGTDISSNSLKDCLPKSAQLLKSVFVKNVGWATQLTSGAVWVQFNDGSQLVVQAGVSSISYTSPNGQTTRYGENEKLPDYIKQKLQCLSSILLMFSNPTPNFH
PTK2B (human), sequence (Q14289 whole entry, looked up): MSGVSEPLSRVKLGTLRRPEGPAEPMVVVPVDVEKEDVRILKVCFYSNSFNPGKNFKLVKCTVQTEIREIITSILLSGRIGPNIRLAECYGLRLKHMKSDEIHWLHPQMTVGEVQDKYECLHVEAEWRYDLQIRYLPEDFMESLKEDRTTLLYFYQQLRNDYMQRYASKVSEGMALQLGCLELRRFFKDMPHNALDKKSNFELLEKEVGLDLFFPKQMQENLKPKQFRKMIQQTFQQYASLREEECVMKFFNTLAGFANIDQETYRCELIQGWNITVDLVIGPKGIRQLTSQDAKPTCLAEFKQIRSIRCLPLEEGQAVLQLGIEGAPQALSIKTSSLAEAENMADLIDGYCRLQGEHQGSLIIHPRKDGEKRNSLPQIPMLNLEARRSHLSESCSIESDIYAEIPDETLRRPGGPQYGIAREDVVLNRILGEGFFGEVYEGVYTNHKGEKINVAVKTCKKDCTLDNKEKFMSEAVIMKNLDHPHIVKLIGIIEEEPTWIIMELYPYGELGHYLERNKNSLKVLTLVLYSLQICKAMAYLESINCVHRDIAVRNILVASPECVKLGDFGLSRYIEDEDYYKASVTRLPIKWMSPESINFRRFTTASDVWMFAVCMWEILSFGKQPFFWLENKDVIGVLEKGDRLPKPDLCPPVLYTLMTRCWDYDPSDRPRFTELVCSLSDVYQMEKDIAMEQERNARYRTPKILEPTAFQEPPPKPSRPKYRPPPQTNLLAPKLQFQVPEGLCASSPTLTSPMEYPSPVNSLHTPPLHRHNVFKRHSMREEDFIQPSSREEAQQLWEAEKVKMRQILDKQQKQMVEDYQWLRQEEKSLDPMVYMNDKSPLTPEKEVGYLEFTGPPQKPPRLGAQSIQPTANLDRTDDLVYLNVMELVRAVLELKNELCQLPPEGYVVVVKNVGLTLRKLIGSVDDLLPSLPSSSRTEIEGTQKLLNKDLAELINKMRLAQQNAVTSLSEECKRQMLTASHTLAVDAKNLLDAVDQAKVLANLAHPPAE

COc1cc(C(=O)NC2CCN(C)CC2)ccc1Nc1ncc2c(n1)N(C1CCC(O)CC1)CCC(=O)N2C (stereo not drawn)
kinase still bound, per cent of control [1]: 4.1%
kinase still bound, per cent of control [2]: 22%
kinase still bound, per cent of control [3]: 5.6%
kinase still bound, per cent of control [4]: 11%
kinase still bound, per cent of control [5]: 9.6%
kinase still bound, per cent of control [6]: 8.2%
kinase still bound, per cent of control [7]: 0.85%
kinase still bound, per cent of control [8]: 20%
kinase still bound, per cent of control [9]: 9.9%
kinase still bound, per cent of control [10]: 15%
kinase still bound, per cent of control [11]: 23%
kinase still bound, per cent of control [12]: 31%
kinase still bound, per cent of control [13]: 30%
kinase still bound, per cent of control [14]: 14%
kinase still bound, per cent of control [15]: 8%
kinase still bound, per cent of control [16]: 7.1%
kinase still bound, per cent of control [17]: 24%
kinase still bound, per cent of control [18]: 12%
kinase still bound, per cent of control [19]: 2%
kinase still bound, per cent of control [20]: 3%
kinase still bound, per cent of control [21]: 2.7%

CS(=O)C1=NC(=O)/C(=C/c2ccc(-c3ccc(S(N)(=O)=O)cc3)o2)S1 (stereo not drawn)
kinase still bound, per cent of control [22]: 21%
kinase still bound, per cent of control [23]: 31%
kinase still bound, per cent of control [24]: 30%
kinase still bound, per cent of control [25]: 15%
kinase still bound, per cent of control [26]: 9.3%
kinase still bound, per cent of control [27]: 18%
kinase still bound, per cent of control [6]: 2.3%
kinase still bound, per cent of control [28]: 33%
kinase still bound, per cent of control [29]: 3.3%
kinase still bound, per cent of control [30]: 12%
kinase still bound, per cent of control [31]: 2.4%
kinase still bound, per cent of control [9]: 8%
kinase still bound, per cent of control [32]: 18%
kinase still bound, per cent of control [33]: 29%
kinase still bound, per cent of control [34]: 10%
kinase still bound, per cent of control [35]: 5.2%
kinase still bound, per cent of control [36]: 32%
kinase still bound, per cent of control [37]: 12%
kinase still bound, per cent of control [15]: 4.7%
kinase still bound, per cent of control [38]: 21%
kinase still bound, per cent of control [39]: 2.8%
kinase still bound, per cent of control [40]: 17%
kinase still bound, per cent of control [41]: 17%
kinase still bound, per cent of control [17]: 3.4%
kinase still bound, per cent of control [42]: 3.4%
IC50 [43]: 165 nM
IC50 [44]: 293 nM

From the kinase profiling compilation of Christmann-Franck et al. (2016)
